Test results published in patent US20160022872A1, “CELL-BASED COMPOSITIONS, CELL-BASED BANDAGE DEVICES AND SYSTEMS AND METHODS OF TREATMENT THEREWITH” (UNIVERSITY OF PITTSBURGH-OF THE COMMONWEALTH SYSTEM OF …, priority 2013, published 2016).
Entries after “also recorded” stand apart in the source; their conditions may differ. Like-named read-outs stand apart in the source and are kept apart here.

Experiments:
imhMSC and prhMSC [1] = conditions: for toxic effect on MSC (caspase3 activation without FasL): MSC on Collagen I and TNC, no FasL; for effect on survival advantage of TNC and Collagen I in the presence of FasL: prhMSC on Collagen I and TNC, inhibitor 30 minutes prior to and during 8 hours FasL; for cell death / caspase3 activation (FLICA): FasL or CHX and FasL, 8 hours (imhMSC) or 12 hours (prhMSC)
Experimental: MSCs are most susceptible to cell death via the Fas death pathway. […] Cells were also treated with a low concentration of the protein synthesis inhibitor cycloheximide (CHX) in addition to FasL. Cycloheximide, being a protein synthesis inhibitor, increases cell stress, imitating the starvation stress seen in vivo in a wound setting.
After preparation of coated surfaces and prior to seeding of MSC, neutralizing antibodies to the EGFL and FNL domains were added for 24 hours Immortalized hMSC were then seeded for 24 hours, kept treated or untreated with FasL for 8 hours, followed by a FLICA assay to test for caspase3 activation.
We next studied whether TNC contributes to survival of MSCs by sequestering FasL and prevention of FasL from binding its receptor Fas on MSC. We grew MSCs inside two cloning cylinders placed in wells of a 6-well dish, enclosing areas without any ECM, or with Collagen I and TNC, on which imhMSC were grown. One well had Collagen I and TNC coating surrounding the cloning cylinders, covered with media and FasL. The second well had only media with FasL surrounding the cloning cylinders, with no TNC.
The inhibitors were present during the entire 8 hours of FasL treatment, after which a FLICA assay was performed.

Erk = assay: immunofluorescence for phospho-Erk; format: cell-based, human; conditions: imhMSC, 0, 30 and 60 minutes
Experimental: We examined that of Erk Immortalized hMSC were plated on surfaces with Collagen I alone or Collagen I and TNC for 24 hours. After 24 hours, (considered 0 minute), immunofluorescence for phospho-Erk (green fluorescence) was tested either with or without the EGFR inhibitor PD153035.

imhMSC and prhMSC [2] = assay: MSC proliferation on extracellular matrix coatings; format: cell-based, human; conditions: 96 hours post-seeding
Excerpt: During wound healing, endogenous MSC proliferation and differentiation are temporally distinct events. […] We tested if the extracellular matrix or ECM factors had any influence on MSC proliferation.

MSC [3] = assay: MSC differentiation on coated surfaces (Von Kossa staining, adipocyte formation); format: cell-based, human
Excerpt: We then studied whether TNC by itself, in the absence of specific differentiation cues, promotes MSC differentiation. We examined osteoblast or adipose cell formation from MSC grown on TNC and Collagen (Col I), in the presence of either proliferation or differentiation media. […] The matrix mix of TNC and Collagen I also did it interfere with differentiation.

EGFR = assay: immunofluorescence for phospho-EGFR and EEA1; format: cell-based, human
Experimental: Upon determining that TNC provided a survival effect on MSC in the presence of FasL, and that this mapped to the EGFL, we studied if Tenascin C was able to activate EGFR on the surface of MSC and if this activation was sustained. MSCs have low levels of EGFR, which may limit activation by the ultra-low affinity EGFL. In a number of studies, immortalized hMSC were plated on surfaces with Collagen I alone or Collagen I and TNC for 24 hours. After 24 hours, (considered 0 minute), immunofluorescence for phospho-EGFR (red fluorescence) and the early endosome marker EEA1 (green fluorescence) was done on these samples. […] Immortalized hMSC seeded on Collagen I were treated with EGF, the prototypal EGFR ligand, known to cause EGFR internalization for 15, 30 and 60 minutes prior to fixation, to induce phosphorylation of EGFR. At the same time points, immunofluorescence was done on cells grown on Collagen I and TNC.

MSC [4] = assay: inverted centrifugation assay of MSC adhesiveness on coated surfaces; format: cell-based, human; conditions: 2 hours post-seeding
Experimental: Tenascin-C or TNC may reduce the number of focal adhesions and decrease cell adhesiveness in several cell types. To test for MSC adhesiveness on TNC, an inverted centrifugation assay was performed 2 hours post-seeding MSC on […] and the number of cells attached after centrifugation was compared to number of cells attached on a similarly coated surface that had not undergone centrifugation. […] To increase adhesiveness of cells on TNC we coated mixed Collagen I, a matrix naturally occurring in the in vivo bone environment and one that promotes MSC attachment and spreading, in a 1:1 ratio with TNC for coating substrates. […] In a number of studies hereof, a combination of Collagen I and TNC was used to increase TNC adherence to cells.

MSC [5] = assay: flow cytometric quantification of FITC/HLA+ cells, MSC survival in wound bed; format: in vivo, mouse; conditions: days 3, 7 and 21; WT and KO mice
Excerpt: Male and Female FVB (Friend Virus B-Type) and C57BL/6 mice, between 7-9 weeks of age, were used in a number of studies. After shaving the hair on the back of the mice, 8 mm punch biopsies were created. Wounds were either left untreated or treated with commercially available NEW-SKIN® (a liquid bandage or wound protective barrier available from J&J of New Brunswick, N.J.), PEG-Polymer, PEG-Polymer+TNC, or PEG-Polymer+TNC−MSC. […]
Flow cytometric quantification of FITC/HLA+cells was used to detect MSC survival in the wound bed. […]
After shaving the hair on the back of the mice 8 mm punch biopsies were created. […] Animals were euthanized by CO2 inhalation and the wounds assessed. […] Each wound was measured and then removed from the animal, with unwounded skin taken from the contralateral dorsum as a control.
Flow Cytometry. Twelve-millimeter punch biopsies of the wound and 12-mm punch biopsies of unwounded regions were isolated for quantification of MSC engraftment in wounded skin at days 3, 7, 14, and 21. […] Flow cytometry was performed on an LSR II Cytometer (a flow cytometer system available from BD Biosciences of Franklin Lakes, N.J.) and subsequently analyzed using FOWJO® digital FACS software (available from Tree Star, Inc. of Ashland, Oreg.).

With `O=c1cc(N2CCOCC2)oc2c(-c3ccccc3)cccc12` [LY294002, reference compound] the “toxic effect on MSC (caspase3 activation without FasL)” value (imhMSC and prhMSC [1]) was “did not have a toxic effect on cells”.
In the case of `COc1cccc(-c2cc(=O)c3ccccc3o2)c1N` [PD98059, reference compound], the “toxic effect on MSC (caspase3 activation without FasL)” value (imhMSC and prhMSC [1]) is reported as “did not have a toxic effect on cells” and the “effect on survival advantage of TNC and Collagen I in the presence of FasL” value (imhMSC and prhMSC [1]) is reported as “blocked the survival advantage”.
For `COc1cc2ncnc(Nc3cccc(Br)c3)c2cc1OC` [PD153035, reference compound], the “toxic effect on MSC (caspase3 activation without FasL)” value (imhMSC and prhMSC [1]) was “did not have a toxic effect on cells”, the “effect on survival advantage of TNC and Collagen I in the presence of FasL” value (imhMSC and prhMSC [1]) was “blocked the survival advantage” and the phospho-Erk activation (Erk) was “reduced but not completely inhibited”.
“Collagen I: a matrix naturally occurring in the in vivo bone environment that promotes MSC attachment and spreading” was tested, and the “MSC proliferation relative to cell numbers initially plated” value (imhMSC and prhMSC [2]) was “promote both imhMSC and prhMSC proliferation”, the “hydroxyapatite deposition (Von Kossa staining)” value (MSC [3]; 30 days in proliferation media) was “neither Collagen I by itself nor TNC and Collagen I caused hydroxyapatite deposition” and the “cell death / caspase3 activation (FLICA)” value (imhMSC and prhMSC [1]) was “did not show protection”. The “cell death / caspase3 activation (FLICA)” value (imhMSC and prhMSC [1]; listed as Collagen I alone) was “showed caspase 3 activation”, the phospho-EGFR staining (EGFR; imhMSC, 24 hours after plating (0 minute)) was “did not show phospho-EGFR staining” and the phospho-Erk activation (Erk) was “significantly less than that with TNC”.
In the case of “EGF: the prototypal EGFR ligand, known to cause EGFR internalization”, the “phospho-EGFR staining over time” value (EGFR; imhMSC, 15, 30 and 60 minutes) is reported as “stained positive for phospho-EGFR after 15 minutes of treatment; also recorded: very little phospho-EGFR signal”.
“TNC: the matrikine tenascin C, containing EGF-like and fibronectin like repeats” was tested, and the MSC adhesiveness (MSC [4]) was “detach from surfaces after inverted centrifugation; also recorded: only half as adhesive as cells on Collagen I”, the adipocyte formation (MSC [3]; in the presence of adipogenic inducers) was “did not prevent adipocyte formation” and the osteogenic differentiation (MSC [3]; in the presence of differentiation media) was “did not interfere with osteogenic differentiation”. For the same compound, the adipocyte formation (MSC [3]; on its own, no inducers) was “did not promote adipocyte formation on its own”, the “cell death / caspase3 activation (FLICA)” value (imhMSC and prhMSC [1]) was “did not show caspase3 activation” and the “sequestering or neutralizing of FasL” value (imhMSC and prhMSC [1]; cloning cylinder experiment, imhMSC) was “neither sequestering nor neutralizing FasL”. The “optimal TNC coating to promote MSC survival in the presence of FasL” value (imhMSC and prhMSC [1]; dose response, TUNEL and FLICA staining) was 1 Lg/cm2, the phospho-Erk activation (Erk) was “activate phosho-Erk in MSC at 0, 30 and 60 minutes” and the “MSC survival in wound bed over time” value (MSC [5]) was “survive more and longer”.
